Laboratory results: patent publication US10358442B2, “2-homopiperazine-1-yl-4H-1,3-benzothiazine-4-one derivatives and process for the preparation of 2-(homo)piperazine 1,3-benzothiazine-4-one hydrochlorides” (Ecole Polytechnique Federale De Lausanne (EPFL), priority 2015, dated 2019)

Test system: M. tuberculosis NTB1
Format: cell-based

Structure (SMILES)	NTB1 MIC99 [µg/mL]
CCCCCN1CCCN(c2nc(=O)c3cc(C(F)(F)F)cc([N+](=O)[O-])c3s2)CC1.Cl [Compound 2, 8-Nitro-2-(4-pentyl-1,4-diazepan-1-yl)-6-(trifluoromethyl)-4H-1,3-benzothiazin-4-one Hydrochloride]	>10
CCCCCCN1CCCN(c2nc(=O)c3cc(C(F)(F)F)cc([N+](=O)[O-])c3s2)CC1.Cl [Compound 3, 2-(4-Hexyl-1,4-diazepan-1-yl)-8-nitro-6-(trifluoromethyl)-4H-1,3-benzothiazin-4-one Hydrochloride]	>10
Cl.O=c1nc(N2CCCN(CCC3CCCCC3)CC2)sc2c([N+](=O)[O-])cc(C(F)(F)F)cc12 [Compound 4, 2-[4-(2-Cyclohexylethyl)-1,4-diazepan-1-yl]-8-nitro-6-(trifluoromethyl)-4H-1,3-benzothiazin-4-one Hydrochloride]	>10
CCCCCCCN1CCCN(c2nc(=O)c3cc(C(F)(F)F)cc([N+](=O)[O-])c3s2)CC1.Cl [Compound 5, 2-(4-Heptyl-1,4-diazepan-1-yl)-8-nitro-6-(trifluoromethyl)-4H-1,3-benzothiazin-4-one Hydrochloride]	13.8
Cl.O=c1nc(N2CCCN(C3CCCCC3)CC2)sc2c([N+](=O)[O-])cc(C(F)(F)F)cc12 [Compound 6, 2-(4-Cyclohexyl-1,4-diazepan-1-yl)-8-nitro-6-(trifluoromethyl)-4H-1,3-benzothiazin-4-one Hydrochloride]	50.5
Cl.O=c1nc(N2CCCN(CCc3ccccc3)CC2)sc2c([N+](=O)[O-])cc(C(F)(F)F)cc12 [Compound 7, 8-Nitro-2-[4-(2-phenylethyl)-1,4-diazepan-1-yl]-6-(trifluoromethyl)-4H-1,3-benzothiazin-4-one Hydrochloride]	27.1
O=c1nc(N2CCN(CC3CCCCC3)CC2)sc2c([N+](=O)[O-])cc(C(F)(F)F)cc12 [PBTZ169, 2-[4-(cyclohexylmethyl)piperazin-1-yl]-8-nitro-6-(trifluoromethyl)-4H-1,3-benzothiazin-4-one, reference compound]	>100
